Consider 31 compounds from US9284321B2, “Piperazino[1,2-a]indol-1-ones and [1,4]diazepino[1,2-a]indol-1-one” (Hoffmann-La Roche Inc., priority 2012, dated 2016).

Series [1] has as its system human embryonic stem cell derived neural stem cells (NSCs). The series is described as follows: Neural Stem Cell Proliferation Assay (neurogenesis assay, ATP levels by CellTiterGlo). The class given is cell-based. The settings on record: 96 h, compound concentration at which 150% activity of control (100%) is reached, NSC proliferation by ATP level after 4 days incubation, dose response 8 μM to 8 nM. In a few lines: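 Read-out is CellTiterGlo ATP luminescence after 4-day culture (37 °C, 5% CO2) of dual-SMAD-derived human ESC NSCs, dosed 4 h post-seeding at 8 μM to 8 nM (11 points, 2-fold). EC150 marks the concentration reaching 150% of the media-only control (0.25% DMSO).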
In general terms: ATP-based viability assays read luminescence as a measure of living cells.

As to `Cc1c2n(c3c(-c4ccc(C#N)cc4)cc(F)cc13)CCNC2=O` [Example 124, 4-(8-Fluoro-10-methyl-1-oxo-1,2,3,4-tetrahydro-pyrazino[1,2-a]indol-6-yl)-benzonitrile], the melting point (usually the temperature of the solid-liquid transition) turned out to be 295 °C. This compound also yielded an EC (150% of control) in series [1] of 0.023 µM.
The corresponding values for `Cc1c2n(c3c(-c4ccc(S(C)(=O)=O)cc4)cc(F)cc13)CCNC2=O` [Example 125, 8-Fluoro-6-(4-methanesulfonyl-phenyl)-10-methyl-3,4-dihydro-2H-1-pyrazino[1,2-a]indol-1-one] are 292 °C and 0.015 µM.
In turn, `Cc1c2n(c3c(-c4ccc([N+](=O)[O-])cc4)cc(F)cc13)CCNC2=O` [Example 126, 8-Fluoro-10-methyl-6-(4-nitro-phenyl)-3,4-dihydro-2H-pyrazino[1,2-a]indol-1-one] gave a melting point of 309 °C. In series [1], the EC (150% of control) was 0.01 µM.
The corresponding values for `Cc1c2n(c3c(-c4ccc(C(C)C)cc4)cc(F)cc13)CCNC2=O` [Example 127, 8-Fluoro-6-(4-isopropyl-phenyl)-10-methyl-3,4-dihydro-2H-pyrazino[1,2-a]indol-1-one] are 177 °C and 0.025 µM.
For `Cc1c2n(c3c(-c4cccc(Cl)c4)cc(F)cc13)CCNC2=O` [Example 128, 6-(3-Chloro-phenyl)-8-fluoro-10-methyl-3,4-dihydro-2H-pyrazino[1,2-a]indol-1-one], the melting point was 182 °C. The compound further gave an EC (150% of control) in series [1] of 0.22 µM.
Compound `Cc1c2n(c3c(-c4ccc5c(c4)CCO5)cc(F)cc13)CCNC2=O` [Example 129, 6-(2,3-Dihydro-benzofuran-5-yl)-8-fluoro-10-methyl-3,4-dihydro-2H-pyrazino[1,2-a]indol-1-one] returned a melting point of 251 °C. Further, in series [1], the EC (150% of control) was 0.022 µM.
The corresponding values for `Cc1c2n(c3c(-c4ccc(CO)cc4)cc(F)cc13)CCNC2=O` [Example 130, 8-Fluoro-6-(4-hydroxymethyl-phenyl)-10-methyl-3,4-dihydro-2H-pyrazino[1,2-a]indol-1-one] are 220 °C and 0.011 µM.
`Cc1c2n(c3c(-c4cccc(C#N)c4)cc(F)cc13)CCNC2=O` [Example 131, 3-(8-Fluoro-10-methyl-1-oxo-1,2,3,4-tetrahydro-pyrazino[1,2-a]indol-6-yl)-benzonitrile] registered a melting point of 192 °C. Moreover, the EC (150% of control) in series [1] amounted to 0.33 µM.
The corresponding values for `Cc1c2n(c3c(-c4ccc(C(C)(C)C)cc4)cc(F)cc13)CCNC2=O` [Example 132, 6-(4-tert-Butyl-phenyl)-8-fluoro-10-methyl-3,4-dihydro-2H-pyrazino[1,2-a]indol-1-one] are 216 °C and 0.046 µM.
For `Cc1c2n(c3c(-c4ccc(OC(F)(F)F)cc4)cc(Cl)cc13)CCNC2=O` [Example 133, 8-Chloro-10-methyl-6-(4-trifluoromethoxy-phenyl)-3,4-dihydro-2H-pyrazino[1,2-a]indol-1-one], the melting point is 212 °C. This compound had an EC (150% of control) in series [1] of 0.004 µM.
For `Cc1cc(-c2cc(Cl)cc3c(C)c4n(c23)CCNC4=O)ccc1F` [Example 134, 8-Chloro-6-(4-fluoro-3-methyl-phenyl)-10-methyl-3,4-dihydro-2H-pyrazino[1,2-a]indol-1-one], the melting point is 235.5 °C. In series [1], the EC (150% of control) was 0.083 µM.
The corresponding values for `Cc1c2n(c3c(-c4ccc(Cl)c(C(F)(F)F)c4)cc(Cl)cc13)CCNC2=O` [Example 135, 8-Chloro-6-(4-chloro-3-trifluoromethyl-phenyl)-10-methyl-3,4-dihydro-2H-pyrazino[1,2-a]indol-1-one] are 268 °C and 0.036 µM.
Take `Cc1c2n(c3c(-c4cc(F)c(F)c(F)c4)cc(Cl)cc13)CCNC2=O` [Example 136, 8-Chloro-10-methyl-6-(3,4,5-trifluoro-phenyl)-3,4-dihydro-2H-pyrazino[1,2-a]indol-1-one]: the melting point is 253 °C. In series [1], this compound displayed an EC (150% of control) of 0.021 µM.
For `Cc1c2n(c3c(-c4cccnc4)cc(Cl)cc13)CCNC2=O` [Example 137, 8-Chloro-10-methyl-6-pyridin-3-yl-3,4-dihydro-2H-pyrazino[1,2-a]indol-1-one], in that order: 252.5 °C and 0.088 µM.
For `Cc1c2n(c3c(-c4cncnc4)cc(Cl)cc13)CCNC2=O` [Example 138, 8-Chloro-10-methyl-6-pyrimidin-5-yl-3,4-dihydro-2H-pyrazino[1,2-a]indol-1-one], in that order: 306 °C and 0.21 µM.
`Cc1c2n(c3c(-c4ccnc(F)c4)cc(F)cc13)CCNC2=O` [Example 139, 8-Fluoro-6-(2-fluoro-pyridin-4-yl)-10-methyl-3,4-dihydro-2H-pyrazino[1,2-a]indol-1-one] registered a melting point of 240 °C. Also, in series [1], the EC (150% of control) is 0.027 µM.
For `Cc1c2n(c3c(-c4ccnc(Cl)c4)cc(F)cc13)CCNC2=O` [Example 140, 6-(2-Chloro-pyridin-4-yl)-8-fluoro-10-methyl-3,4-dihydro-2H-pyrazino[1,2-a]indol-1-one], in that order: 254 °C and 0.12 µM.
The corresponding values for `Cc1c2n(c3c(-c4ccc(F)nc4)cc(F)cc13)CCNC2=O` [Example 141, 8-Fluoro-6-(6-fluoro-pyridin-3-yl)-10-methyl-3,4-dihydro-2H-pyrazino[1,2-a]indol-1-one] are 247 °C and 0.13 µM.
`COc1ncc(-c2cc(Cl)cc3c(C)c4n(c23)CCNC4=O)cn1` [Example 142, 8-Chloro-6-(2-methoxy-pyrimidin-5-yl)-10-methyl-3,4-dihydro-2H-pyrazino[1,2-a]indol-1-one]: the melting point stood at 270.5 °C. This compound also registered an EC (150% of control) in series [1] of 0.039 µM.
For `Cc1c2n(c3c(-c4cnc(N)nc4)cc(Cl)cc13)CCNC2=O` [Example 143, 6-(2-Amino-pyrimidin-5-yl)-8-chloro-10-methyl-3,4-dihydro-2H-pyrazino[1,2-a]indol-1-one], in that order: 316 °C and 0.32 µM.
The compound `Cc1c2n(c3c(-c4ccc(N(C)C)cc4)cc(F)cc13)CCNC2=O` [Example 145, 6-(4-Dimethylamino-phenyl)-8-fluoro-10-methyl-3,4-dihydro-2H-pyrazino[1,2-a]indol-1-one] registered a melting point of 256 °C. In series [1], this compound returned an EC (150% of control) of 0.017 µM.
The corresponding values for `COc1ccc(-c2cc(F)cc3c(C)c4n(c23)CCNC4=O)cn1` [Example 146, 8-Fluoro-6-(6-methoxy-pyridin-3-yl)-10-methyl-3,4-dihydro-2H-pyrazino[1,2-a]indol-1-one] are 226 °C and 0.02 µM.
On to `Cc1ccc(-c2cc(F)cc3c(C)c4n(c23)CCNC4=O)cc1F` [Example 147, 8-Fluoro-6-(3-fluoro-4-methyl-phenyl)-10-methyl-3,4-dihydro-2H-pyrazino[1,2-a]indol-1-one], for which the melting point came to 206 °C. In series [1], this compound gave an EC (150% of control) of 0.039 µM.
Compound `Cc1cc(-c2cc(F)cc3c(C)c4n(c23)CCNC4=O)ccc1F` [Example 148, 8-Fluoro-6-(4-fluoro-3-methyl-phenyl)-10-methyl-3,4-dihydro-2H-pyrazino[1,2-a]indol-1-one] displayed a melting point of 236 °C. Further, the EC (150% of control) in series [1] was found to be 0.078 µM.
The corresponding values for `Cc1c2n(c3c(-c4ccc(OC(F)(F)F)cc4)cc(F)cc13)CCNC2=O` [Example 149, 8-Fluoro-10-methyl-6-(4-trifluoromethoxy-phenyl)-3,4-dihydro-2H-pyrazino[1,2-a]indol-1-one] are 162 °C and 0.016 µM.
The corresponding values for `Cc1c2n(c3c(-c4ccc(Cl)c(C(F)(F)F)c4)cc(F)cc13)CCNC2=O` [Example 150, 6-(4-Chloro-3-trifluoromethyl-phenyl)-8-fluoro-10-methyl-3,4-dihydro-2H-pyrazino[1,2-a]indol-1-one] are 240 °C and 0.61 µM.
For `Cc1c2n(c3c(-c4ccc(F)c(F)c4F)cc(F)cc13)CCNC2=O` [Example 151, 8-Fluoro-10-methyl-6-(2,3,4-trifluoro-phenyl)-3,4-dihydro-2H-pyrazino[1,2-a]indol-1-one], in that order: 130 °C and 0.035 µM.
On to `Cc1c2n(c3c(-c4cccnc4)cc(F)cc13)CCNC2=O` [Example 152, 8-Fluoro-10-methyl-6-pyridin-3-yl-3,4-dihydro-2H-pyrazino[1,2-a]indol-1-one], for which the melting point stood at 239 °C. Moreover, the EC (150% of control) in series [1] amounted to 0.13 µM.
The corresponding values for `Cc1c2n(c3c(-c4ccc(F)c(F)c4F)cc(Cl)cc13)CCNC2=O` [Example 153, 8-Chloro-10-methyl-6-(2,3,4-trifluoro-phenyl)-3,4-dihydro-2H-pyrazino[1,2-a]indol-1-one] are 205.5 °C and 0.029 µM.
`Cc1c2n(c3c(-c4ccc(N(C)C)nc4)cc(Cl)cc13)CCNC2=O` [Example 154, 8-Chloro-6-(6-dimethylamino-pyridin-3-yl)-10-methyl-3,4-dihydro-2H-pyrazino[1,2-a]indol-1-one]: the melting point is 248 °C. The compound also showed an EC (150% of control) in series [1] of 0.022 µM.
The corresponding values for `Cc1c2n(c3c(-c4cncnc4)cc(F)cc13)CCNC2=O` [Example 155, 8-Fluoro-10-methyl-6-pyrimidin-5-yl-3,4-dihydro-2H-pyrazino[1,2-a]indol-1-one] are 289 °C and 0.57 µM.
